{
  "source": "ChEMBL document CHEMBL5321253",
  "about": "“Discovery of novel pyridinones as MGAT2 inhibitors for the treatment of metabolic disorders” (Bioorg Med Chem Lett, 2023)",
  "key": {"in vitro [1]": {"experiment": "in vitro", "settings": "mouse, liver microsomes"}, "in vitro [2]": {"experiment": "in vitro", "settings": "human, liver microsomes"}},
  "data": [
    {"smiles": "Cc1ccc(-c2cc(-c3ccc(OCCCC(F)(F)F)cc3)[nH]c(=O)c2NC(=O)c2ccno2)cc1", "values": [
      {"measurement": "remaining at 10 min", "setting": "in vitro [1]", "value": 27, "unit": "%"},
      {"measurement": "remaining at 10 min", "setting": "in vitro [2]", "value": 64, "unit": "%"}
    ]}
  ]
}
